Measured values as given in patent publication US20210214421A1 (priority 2018, published 2021).

How the values were obtained:
Test in all cases: microbe, parasite or virus in culture
Format in all cases: cell-based
[1] = test system: Staphylococcus pseudintermedius strain 69687; conditions: Staphylococcus pseudintermedius, 69687, 24 h, read-out: minimal inhibiting concentration (breakthrough point)
[2] = test system: Staphylococcus pseudintermedius strain HH15; conditions: HH15, 24 h, read-out: minimal inhibiting concentration (breakthrough point)
[3] = test system: Staphylococcus pseudintermedius strain GL151A; conditions: 24 h, read-out: minimal inhibiting concentration (breakthrough point)
[4] = test system: Staphylococcus pseudintermedius strain 23929; conditions: Staphylococcus pseudintermedius, 23929, 24 h, read-out: minimal inhibiting concentration (breakthrough point)

Measured: MIC

CCC[C@@H]1C[C@@H](C(=O)N[C@@H]([C@H]2O[C@H](SC)[C@H](O)[C@@H](O)[C@H]2O)[C@H](C)Cl)N(C)C1 [clindamycin]
625 µg/mL: all assays above
